Reference: patent EP4603105A1, “PHARMACEUTICAL COMPOSITION CONTAINING CYCLIC COMPOUND HAVING SELECTIVE KRAS INHIBITORY EFFECT AGAINST HRAS AND NRAS” (CHUGAI SEIYAKU KABUSHIKI KAISHA, priority 2022, dated 2024)
Where a SMILES comes first, the peptide text is derived from it. Bridges are numbered along the chain shown (N, C = ends). [ ]: non-standard residue; d: D form. The star is where a group is joined. hPhe(3-Cl-4-CF3) = N[C@@H](CCc1ccc(C(F)(F)F)c(Cl)c1)C(=O)O; NPrPhe(4-CF3) = CCCN[C@@H](Cc1ccc(C(F)(F)F)cc1)C(=O)O; Pip(4,4-F2) = O=C(O)[C@@H]1CC(F)(F)CCN1; NMeGly(cPent) = CN[C@H](C(=O)O)C1CCCC1; NMeD = CN[C@@H](CC(=O)O)C(=O)O; NMeL = CN[C@@H](CC(C)C)C(=O)O; Morpholide = C1CN(*)CCO1; Ac5c = NC1(C(=O)O)CCCC1; NEtG = CCNCC(=O)O; Sar = CNCC(=O)O

What was measured:
[1] = biological target: GDP-bound NRAS wild-type protein (Homo sapiens, UniProt P01111); experiment: Binding to NRAS by surface plasmon resonance (SPR), KD and KD ratio to KRAS
In short: (§1)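 Each cycle, GDP-bound biotin-Avi RAS was captured (~100–300 RU), compound concentrations were injected low to high for 75 s each at 100 µL/min, then the chip was regenerated. Buffer: HBS pH 7.4, 10 mM MgCl2, 10 µM GDP, 1 mM DTT, 4% DMSO; 30°C. KD from a 1:1 binding model.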

HRAS wild-type protein = HRAS wild-type protein (Homo sapiens, UniProt P01112); experiment: Binding to HRAS by surface plasmon resonance (SPR), KD and KD ratio to KRAS
In short: as §1

[2] = tested on: human lung cancer strain NCI-H441; assay type: cell-based
In short: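 Signal came from […] measured per well once the reagent was added. Beforehand, cells were cultured at 37°C and 5% carbon dioxide on a compound series serially diluted in dimethyl sulfoxide.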

[3] = ratio of KD for GDP-bound NRAS wild-type protein to KD for KRAS
[4] = ratio of KD for HRAS wild-type protein to KD for KRAS
[5] = ratio of the KD value with respect to GDP-bound NRAS wild-type protein to the KD value with respect to KRAS
[6] = ratio of the KD value with respect to HRAS wild-type protein to the KD value with respect to KRAS
[7] = ratio of KD value for GDP-bound NRAS wild-type protein to KD value for KRAS (SPR)
[8] = ratio of KD value for HRAS wild-type protein to KD value for KRAS (SPR)

GDP-bound NRAS wild-type protein, sequence (P01111 whole entry): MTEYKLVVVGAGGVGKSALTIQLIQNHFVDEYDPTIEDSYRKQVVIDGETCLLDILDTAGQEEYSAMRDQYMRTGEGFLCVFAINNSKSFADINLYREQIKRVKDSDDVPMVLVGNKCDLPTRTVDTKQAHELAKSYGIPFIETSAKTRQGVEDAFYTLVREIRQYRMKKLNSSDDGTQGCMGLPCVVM
HRAS wild-type protein, sequence (P01112 whole entry): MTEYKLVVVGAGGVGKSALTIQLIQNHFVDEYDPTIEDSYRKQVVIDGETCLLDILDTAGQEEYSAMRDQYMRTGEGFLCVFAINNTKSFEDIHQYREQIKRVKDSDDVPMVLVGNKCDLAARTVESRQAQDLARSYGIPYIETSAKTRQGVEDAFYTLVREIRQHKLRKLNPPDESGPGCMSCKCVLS

Structure (SMILES) | NRAS /KRAS [1, 3] | HRAS /KRAS (HRAS wild-type protein; [4]) | IC50 [2] | NRAS /KRAS [1, 5] | HRAS /KRAS (HRAS wild-type protein; [6]) | NRAS /KRAS [1, 7] | HRAS /KRAS (HRAS wild-type protein; [8])
CCCN1C(=O)CN(C)C(=O)CN(CC)C(=O)[C@H]([C@@H](C)CC)NC(=O)[C@H](CC(C)C)N(C)C(=O)C[C@@H](C(=O)N2CCOCC2)N(C)C(=O)[C@H](C2CCCC2)N(C)C(=O)C2(CCCC2)NC(=O)[C@@H]2CC(F)(F)CCN2C(=O)[C@H](CCc2ccc(C(F)(F)F)c(Cl)c2)NC(=O)CN(C)C(=O)[C@@H]1Cc1ccc(C(F)(F)F)cc1 [PP0298] ([NMeL]I[NEtG][Sar][NPrPhe(4-CF3)][Sar][hPhe(3-Cl-4-CF3)][Pip(4,4-F2)][Ac5c][NMeGly(cPent)][NMeD]-Morpholide; lactam N-11) | B (a compound having 3 or more and less than 10 is denoted as B) | C (A compound having a KD ratio of 0.1 or more and less than 3 is denoted as C) | 41.1 nM |  |  |  | 
CCO[C@@H]1C[C@H]2C(=O)NC3(CCCC3)C(=O)N(C)[C@@H](C3CCCC3)C(=O)N(C)[C@H](C(=O)N(C)C)CC(=O)N(C)[C@@H](CC(C)C)C(=O)N[C@@H]([C@@H](C)CC)C(=O)N(C)CC(=O)N(C)[C@H]3C/C=C\CCN(C3=O)[C@@H](Cc3ccc(C(F)(F)F)cc3)C(=O)N(C)CC(=O)N[C@@H](CCc3cc(F)c(Cl)c(F)c3)C(=O)N2C1 [PP2269] |  |  | 20 nM | A (a compound having 10 or more and less than 20 is denoted as A) | A (a compound having 10 or more and less than 20 is denoted as A) |  | 
CCCO[C@H](C)[C@@H]1NC(=O)[C@H](CC(C)C)N(C)C(=O)C[C@@H](C(=O)N(C)C)N(C)C(=O)[C@H](C2CCCC2)N(C)C(=O)C2(CC(C)(C)C2)NC(=O)[C@@H]2C[C@@H](OCC)CN2C(=O)[C@H](CCc2cc(F)c(C(F)(F)F)c(F)c2)NC(=O)CN(C)C(=O)[C@H](Cc2ccc(C(F)(F)F)cc2)N2CC/C=C\C[C@@H](C2=O)N(C)C(=O)CN(C)C1=O [PP1921] |  |  | 7.8 nM | A (a compound having 10 or more and less than 20 is denoted as A) | A (a compound having 10 or more and less than 20 is denoted as A) |  | 
CC[C@H](C)[C@@H]1NC(=O)[C@H](CC(C)C)N(C)C(=O)C[C@@H](C(=O)N2CCOCC2)N(C)C(=O)[C@H](C2CCCC2)N(C)C(=O)C2(CCOCC2)NC(=O)[C@@H]2CCCN2C(=O)[C@H](CCc2cc(F)c(C(F)(F)F)c(F)c2)NC(=O)CN(C)C(=O)[C@H](Cc2ccc(C(F)(F)F)cc2)N2CCCC[C@@H](C2=O)N(C)C(=O)CN(C)C1=O [PP0564] |  |  | 18.4 nM | B (a compound having 3 or more and less than 10 is denoted as B) | B (a compound having 3 or more and less than 10 is denoted as B) |  | 
CC[C@H](C)[C@@H]1NC(=O)[C@H](C)N(C)C(=O)C[C@@H](C(=O)N2CCOCC2)N(C)C(=O)[C@H](C2CCCC2)N(C)C(=O)C2(CCC2)NC(=O)[C@@H]2CC(F)(F)CN2C(=O)[C@H](CCc2cc(F)c(C(F)(F)F)c(F)c2)NC(=O)CN(C)C(=O)[C@H](Cc2ccc(C(F)(F)F)cc2)N2CCCCC[C@@H](C2=O)N(C)C(=O)CN(C)C1=O [PP0471] |  |  | 37.7 nM | B (a compound having 3 or more and less than 10 is denoted as B) | B (a compound having 3 or more and less than 10 is denoted as B) |  | 
CCC[C@H]1C(=O)N[C@@H]([C@@H](C)CC)C(=O)N(C2CC2)CC(=O)N(C)[C@H]2C/C=C\CCN(C2=O)[C@@H](Cc2ccc(C(F)(F)F)cc2)C(=O)N(C)CC(=O)N[C@@H](CCc2ccc(C(F)(F)F)c(OC)c2)C(=O)N2C[C@H](OCC)C[C@H]2C(=O)NC2(CC(C)(C)C2)C(=O)N(C)[C@@H](C2CCCC2)C(=O)N(C)[C@H](C(=O)N(C)C)CC(=O)N1C [PP2105] |  |  | 10.4 nM | A (a compound having 10 or more and less than 20 is denoted as A) | A (a compound having 10 or more and less than 20 is denoted as A) |  | 
CCO[C@@H]1C[C@H]2C(=O)N(C)C3(CCC3)C(=O)N(C)[C@@H](C3CCCC3)C(=O)N(C)[C@H](C(=O)N(C)C)CC(=O)N(C)[C@@H](CC)C(=O)N[C@@H]([C@@H](C)CC)C(=O)N(C)CC(=O)N(C)[C@H]3C/C=C\CCN(C3=O)[C@@H](Cc3ccc(C)cc3)C(=O)N(C)CC(=O)N[C@@H](CCc3cc(F)c(C(F)(F)F)c(F)c3)C(=O)N2C1 [PP1781] |  |  | 2.1 nM |  |  | A (a compound having 10 or more and less than 20 is denoted as A) | B (a compound having 3 or more and less than 10 is denoted as B)
C=CC[C@H]1C(=O)N[C@@H]([C@@H](C)CC)C(=O)N(C)CC(=O)N(C)[C@H]2C/C=C\CCN(C2=O)[C@@H](Cc2ccc(C(F)(F)F)cc2)C(=O)N(C)CC(=O)N[C@@H](CCc2cc(F)c(C(F)(F)F)c(F)c2)C(=O)N2C[C@H](OCC)C[C@H]2C(=O)NC2(CCC2)C(=O)N(C)[C@@H](C2CCCC2)C(=O)N(C)[C@H](C(=O)N(C)C)CC(=O)N1C [PP1114] | A (a compound having 10 or more and less than 20 is denoted as A) | A (a compound having 10 or more and less than 20 is denoted as A) | 12.2 nM |  |  |  | 
CC[C@H](C)[C@@H]1NC(=O)[C@H](C)N(C)C(=O)C[C@@H](C(=O)N2CCOCC2)N(C)C(=O)[C@H](C2CCCC2)N(C)C(=O)C2(CCC2)NC(=O)[C@@H]2CC(F)(F)CN2C(=O)[C@H](CCc2cc(F)c(C(F)(F)F)c(F)c2)NC(=O)CN(C)C(=O)[C@H](Cc2ccc(C(F)(F)F)cc2)N2CCCC[C@@H](C2=O)N(C)C(=O)CN(C)C1=O [PP0582] |  |  | 9.6 nM | C (A compound having a KD ratio of 0.1 or more and less than 3 is denoted as C) | B (a compound having 3 or more and less than 10 is denoted as B) |  | 
CCO[C@@H]1C[C@H]2C(=O)NC3(CCC3)C(=O)N(C)[C@@H](C3CCCC3)C(=O)N(CCC3CCC3)[C@H](C(=O)N(C)C)CC(=O)N(C)[C@@H](CC)C(=O)N[C@@H]([C@@H](C)CC)C(=O)N(C)CC(=O)N(C)[C@H]3CCCCN(C3=O)[C@@H](Cc3ccc(C(F)(F)F)cc3)C(=O)N(C)CC(=O)N[C@@H](CCc3cc(F)c(C(F)(F)F)c(F)c3)C(=O)N2C1 [PP0645] |  |  | 12 nM | B (a compound having 3 or more and less than 10 is denoted as B) | B (a compound having 3 or more and less than 10 is denoted as B) |  | 
CCO[C@@H]1C[C@H]2C(=O)NC3(CC(C)(C)C3)C(=O)N(C)[C@@H](C3CCCC3)C(=O)N(C)[C@H](C(=O)N(C)C)CC(=O)N(C)[C@@H](CC(C)C)C(=O)N[C@@H]([C@@H](C)CC)C(=O)N(C)CC(=O)N(C)[C@H]3C/C=C\CCN(C3=O)[C@@H](Cc3ccc(C(F)(F)F)cc3)C(=O)N(C)CC(=O)N[C@@H](CCc3cc(F)c(Cl)c(F)c3)C(=O)N2C1 [PP1761] |  |  | 5.2 nM |  |  | A (a compound having 10 or more and less than 20 is denoted as A) | A (a compound having 10 or more and less than 20 is denoted as A)
CCC(CC)[C@H]1C(=O)N(C)[C@H](C(=O)N(C)C)CC(=O)N(C)[C@@H](COC)C(=O)N[C@@H]([C@@H](C)CC)C(=O)N(C)CC(=O)N(C)[C@H]2C/C=C\CCN(C2=O)[C@@H](Cc2ccc(C(F)(F)F)cc2)C(=O)N(C)CC(=O)N[C@@H](CCc2cc(F)c(C(F)(F)F)c(F)c2)C(=O)N2CCOC[C@H]2C(=O)NC2(CC(C)(C)C2)C(=O)N1C [PP2917] | AA (a compound having 20 or more is denoted as AA) | A (a compound having 10 or more and less than 20 is denoted as A) | 130 nM |  |  |  | 
CCO[C@@H]1C[C@H]2C(=O)NC3(CC(C)(C)C3)C(=O)N(C)[C@@H](C(CC)CC)C(=O)N(C)[C@H](C(=O)N3CCCC3)CC(=O)N(C)[C@H]3CCC/C=C/c4ccc(cc4)C[C@@H](C(=O)N(C)CC(=O)N[C@@H](CCc4ccc(Cl)c(Cl)c4)C(=O)N2C1)N1CC/C=C\C[C@@H](C1=O)N(C)C(=O)CN(C)C(=O)[C@H]([C@@H](C)CC)NC3=O [PP2581] | AA (a compound having 20 or more is denoted as AA) | A (a compound having 10 or more and less than 20 is denoted as A) | 32.1 nM |  |  |  | 
CC[C@H](C)[C@@H]1NC(=O)[C@H](CC(F)(F)F)N(C)C(=O)C[C@@H](C(=O)N(C)C)N(C)C(=O)[C@H](C2CCCC2)N(C)C(=O)C2(CC(C)(C)C2)NC(=O)[C@@H]2C[C@@H](F)CN2C(=O)[C@H](CCc2cc(F)c(C(F)(F)F)c(F)c2)NC(=O)CN(C)C(=O)[C@H](Cc2ccc(C(F)(F)F)cc2)N2CC/C=C\C[C@@H](C2=O)N(C)C(=O)CN(C)C1=O [PP1688] |  |  | 1.5 nM |  |  | A (a compound having 10 or more and less than 20 is denoted as A) | A (a compound having 10 or more and less than 20 is denoted as A)
CCO[C@@H]1C[C@H]2C(=O)NC3(CCC3)C(=O)N(C)[C@@H](C(CC)CC)C(=O)N(C)[C@H](C(=O)N3CCCCC3)CC(=O)N(C)[C@H]3CCC/C=C/c4ccc(cc4)C[C@@H](C(=O)N(C)CC(=O)N[C@@H](CCc4cc(F)c(C(F)(F)F)c(F)c4)C(=O)N2C1)N1CC/C=C\C[C@@H](C1=O)N(C)C(=O)CN(C1CC1)C(=O)[C@H]([C@@H](C)CC)NC3=O [PP2956] | AA (a compound having 20 or more is denoted as AA) | A (a compound having 10 or more and less than 20 is denoted as A) | 27.8 nM |  |  |  | 
C#CC[C@H]1C(=O)N[C@@H]([C@@H](C)CC)C(=O)N(C)CC(=O)N(C)[C@H]2C/C=C\CCN(C2=O)[C@@H](Cc2ccc(C(F)(F)F)cc2)C(=O)N(C)CC(=O)N[C@@H](CCc2ccc(C(F)(F)F)c(Cl)c2)C(=O)N2CC3(CC3)C[C@H]2C(=O)NC2(CC(C)(C)C2)C(=O)N(C)[C@@H](C2CCCC2)C(=O)N(C)[C@H](C(=O)N(C)C)CC(=O)N1C [PP2980] | A (a compound having 10 or more and less than 20 is denoted as A) | B (a compound having 3 or more and less than 10 is denoted as B) | 11.7 nM |  |  |  | 
